Calls of active or inactive are those of the source. The rule behind the calls is not given here.
Experiments:
[1] = organism: Mus musculus; experiment: Antiasthmatic activity in ovalbumin-sensitized BALB/c mouse allergy model assessed as reduction in perivascular inflammatory cell infiltration compound treated at 4 g through inhalation prior to ovalbumin challenge by hematoxylin eosin staining method relative to control; assay type: functional; parameters: scale not given: the % may be the effect or the level left
[2] = organism: Mus musculus; experiment: Antiasthmatic activity in ovalbumin-sensitized BALB/c mouse allergy model assessed as reduction in sub-epithelial fibrosis compound treated at 4 g through inhalation prior to ovalbumin challenge by hematoxylin eosin staining method relative to control; assay type: functional; parameters: scale not given: the % may be the effect or the level left
[3] = organism: Mus musculus; experiment: Antiasthmatic activity in ovalbumin-sensitized BALB/c mouse allergy model assessed as reduction in peribronchial inflammatory cell infiltration compound treated at 4 g through inhalation prior to ovalbumin challenge by hematoxylin eosin staining method relative to control; assay type: functional; parameters: scale not given: the % may be the effect or the level left
[4] = organism: Mus musculus; experiment: Antiasthmatic activity in ovalbumin-sensitized BALB/c mouse allergy model assessed as reduction in BAL aldehyde level compound treated at 4 g through inhalation prior to ovalbumin challenge; assay type: functional, organism-based
[5] = organism: Mus musculus; experiment: Antiasthmatic activity in ovalbumin-sensitized BALB/c mouse allergy model assessed as reduction in epithelial cell mucus metaplasia compound treated at 4 g through inhalation prior to ovalbumin challenge by hematoxylin eosin staining method relative to control; assay type: functional
[6] = organism: Mus musculus; experiment: Antiasthmatic activity in ovalbumin-sensitized BALB/c mouse allergy model assessed as reduction in lung aldehyde level compound treated at 4 g through inhalation prior to ovalbumin challenge; assay type: functional, organism-based
[7] = organism: Mus musculus; experiment: Antiasthmatic activity in ovalbumin-sensitized BALB/c mouse allergy model assessed as reduction in eosinophil count compound treated at 4 g through inhalation prior to ovalbumin challenge (reference value: 11 /mm3); assay type: functional
[8] = organism: Mus musculus; experiment: Antiasthmatic activity in ovalbumin-sensitized BALB/c mouse allergy model assessed as reduction in occlusion of the airway diameter by mucus compound treated at 4 g through inhalation prior to ovalbumin challenge by hematoxylin eosin staining method relative to control; assay type: functional
[9] = organism: Mus musculus; experiment: Antiasthmatic activity in ovalbumin-sensitized BALB/c mouse allergy model assessed as reduction in neutrophil count compound treated at 4 g through inhalation prior to ovalbumin challenge (reference value: 43.1 /mm3); assay type: functional
[10] = organism: Mus musculus; experiment: Antiasthmatic activity in ovalbumin-sensitized BALB/c mouse allergy model assessed as reduction in spleen tissue aldehyde level compound treated at 4 g through inhalation prior to ovalbumin challenge; assay type: functional, organism-based

Structure (SMILES): C=C(C)[C@H]1CC=C(C)CC1 [D-LIMONENE]
- Activity [1]: 40%
- Activity [2]: 20%
- Activity [3]: 40%
- Activity [4]: Active
- fold change (FC) [5]: 5
- Activity [6]: Active
- Activity [7]: 12.6 /mm3
- fold change (FC) [8]: 2
- Activity [9]: 29.8 /mm3
- Activity [10]: Active

Source: ChEMBL document CHEMBL3351985, “Prophylactic treatment of asthma by an ozone scavenger in a mouse model” (2015)
